The results in this text go back to patent publication US8741932B2, “Imidazopyridine derivatives” (Piramal Enterprises Limited, priority 2009, dated 2014).

One assay addresses T1, PI3Kα kinase (Homo sapiens, UniProt P42336).
T1 construct: purchased Millipore, USA
The assay is described as follows: Kinase assay (PI3Kα). The class given is biochemical. Conditions: read-out: IC50 (μM) for PI3K inhibition. An outline of the steps:
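Recombinant PI3Kα (20 ng) phosphorylated 12.5 μg phosphatidylinositol with 10 μM ATP and 1 μCi ^32γ P […] in 10 mM Hepes pH 7.5, 50 mM MgCl2 for 20 min at 30° C. Lipids were extracted with MeOH/CHCl3, resolved by TLC, and labelled PI quantified by autoradiography densitometry; PI-103 served as standard.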

Another assay concerns A2780. Briefly: Cytotoxicity assay (propidium iodide), A2780. Type of assay: cell-based. Conditions: Homo sapiens; A2780 (C3a, ovarian); 48 hours.
A further assay relates to T47D. The assay is described as follows: Cytotoxicity assay (propidium iodide), T47D. Conditions: Homo sapiens; T47D (C6e, breast); 48 hours. Type of assay: cell-based.
For another assay, the system named is STAT3. Briefly: STAT3 bioassay (Hela Stat3-luc, luciferase). The class given is cell-based. Conditions: Homo sapiens, Oncostatin M induction. In short, it runs like this: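 Hela Stat3-luc cells (20,000/well, 24 h) pretreated with compound 1 h, then induced with 100 ng/ml final Oncostatin M for 7-8 h at 37 °C. Luciferase luminescence after lysis; percent inhibition versus induction control, IC50 from these percentages.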

In the next assay the test system is IL-6. Briefly: Human monocyte assay, LPS-stimulated IL-6. Type of assay: cell-based. The following applies: Monocyte; human monocytes, 1 μg/ml LPS, 5 hours. In short, it runs like this:
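Adherent human PBMC-derived monocytes (2×10^4/well) were cultured 48 h, preincubated 30 min with compound or 0.5% DMSO, then stimulated with 1 μg/ml E. coli LPS for 5 h at 37° C. TNF-α and IL-6 in supernatants were measured by ELISA.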

pIC50: −log10 of the molar value. Where only a bound is given, the exact number is not on record here.

T1 sequence (P42336 whole entry): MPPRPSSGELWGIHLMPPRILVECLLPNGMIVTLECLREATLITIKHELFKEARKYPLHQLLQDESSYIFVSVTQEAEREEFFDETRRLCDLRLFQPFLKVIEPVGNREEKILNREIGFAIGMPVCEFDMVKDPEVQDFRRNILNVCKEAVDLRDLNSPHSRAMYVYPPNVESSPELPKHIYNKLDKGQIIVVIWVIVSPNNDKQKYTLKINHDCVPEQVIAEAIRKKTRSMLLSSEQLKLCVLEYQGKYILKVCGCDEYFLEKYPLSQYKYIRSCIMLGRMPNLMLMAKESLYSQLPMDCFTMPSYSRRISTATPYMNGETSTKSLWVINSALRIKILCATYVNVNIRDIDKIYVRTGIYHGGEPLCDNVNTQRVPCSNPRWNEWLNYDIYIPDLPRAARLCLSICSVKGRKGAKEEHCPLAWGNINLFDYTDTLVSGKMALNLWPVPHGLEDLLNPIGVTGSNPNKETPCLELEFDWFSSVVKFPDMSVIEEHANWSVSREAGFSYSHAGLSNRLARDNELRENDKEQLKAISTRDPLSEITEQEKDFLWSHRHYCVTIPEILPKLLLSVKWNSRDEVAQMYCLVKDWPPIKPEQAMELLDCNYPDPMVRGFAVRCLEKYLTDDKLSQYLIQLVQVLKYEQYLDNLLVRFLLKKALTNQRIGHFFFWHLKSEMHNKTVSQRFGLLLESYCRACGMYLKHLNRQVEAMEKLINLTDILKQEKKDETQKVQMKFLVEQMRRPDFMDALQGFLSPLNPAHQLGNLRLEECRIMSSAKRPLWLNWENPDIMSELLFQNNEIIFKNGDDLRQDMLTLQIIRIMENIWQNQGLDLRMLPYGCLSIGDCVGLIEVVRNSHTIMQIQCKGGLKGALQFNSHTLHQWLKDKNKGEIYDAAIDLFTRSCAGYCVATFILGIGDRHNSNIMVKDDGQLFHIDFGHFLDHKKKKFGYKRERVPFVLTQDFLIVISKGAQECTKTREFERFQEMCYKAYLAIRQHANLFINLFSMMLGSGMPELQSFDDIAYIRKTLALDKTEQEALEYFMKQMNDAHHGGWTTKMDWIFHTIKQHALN
T1 sequence (P27986 whole entry partner): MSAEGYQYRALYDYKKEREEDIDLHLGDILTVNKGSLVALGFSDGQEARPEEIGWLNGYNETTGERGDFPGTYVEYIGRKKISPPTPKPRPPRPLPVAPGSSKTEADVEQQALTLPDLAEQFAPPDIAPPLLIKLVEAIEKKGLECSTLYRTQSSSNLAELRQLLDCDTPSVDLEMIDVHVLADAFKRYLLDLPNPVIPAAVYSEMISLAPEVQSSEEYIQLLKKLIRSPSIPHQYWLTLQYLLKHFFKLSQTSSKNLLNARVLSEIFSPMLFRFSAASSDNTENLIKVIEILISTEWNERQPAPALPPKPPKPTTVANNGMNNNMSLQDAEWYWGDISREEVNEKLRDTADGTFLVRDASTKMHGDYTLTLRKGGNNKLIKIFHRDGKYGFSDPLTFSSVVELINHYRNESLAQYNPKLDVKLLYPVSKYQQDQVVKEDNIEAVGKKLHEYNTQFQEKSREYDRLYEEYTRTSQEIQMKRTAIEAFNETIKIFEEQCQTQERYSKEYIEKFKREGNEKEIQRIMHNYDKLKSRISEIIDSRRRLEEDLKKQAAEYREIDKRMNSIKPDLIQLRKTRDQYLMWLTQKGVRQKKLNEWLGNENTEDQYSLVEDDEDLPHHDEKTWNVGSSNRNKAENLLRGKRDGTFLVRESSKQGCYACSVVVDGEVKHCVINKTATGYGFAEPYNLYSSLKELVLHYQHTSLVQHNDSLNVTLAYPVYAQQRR
Protocol for A2780: (§1) Cells from cell lines as mentioned in the table given below were seeded at a density of 3000 cells/well in a white opaque 96-well plate. Following incubation at 37° C./5% CO2 for a period of 18-24 hours, the cells were treated with various concentrations (stock solution was prepared in DMSO and subsequent dilutions were made in media as per ATCC guidelines) of the representative compounds of present invention (refer table 3) for a period of 48 hours. At the end of treatment, the spent culture medium was discarded, the cells were washed with 1×PBS and 200 μl of 7 μg/ml propidium iodide was added to each well. The plates were frozen at −70° C. for at least 24 hours. For analysis, the plates were brought to RT, allowed to thaw and were read in PolarStar fluorimeter with the fluorescence setting. The percentage of viable cells in the non treated set of wells was considered to be 100 and the percentage viability following treatment was calculated accordingly. IC50 values were calculated from graphs plotted using these percentages.
Protocol for T47D: as §1

As to `CN(N=Cc1cnc2ccc(-c3cccnc3)cn12)S(=O)(=O)c1cccc(F)c1` [Example 5, 3-Fluoro-N-methyl-N′-((6-(pyridine-3-yl)imidazo[1,2-a]pyridine-3-yl)methylene)benzenesulfonohydrazide], the IC50 at PI3Kα kinase was in the range of 0.5 to 1 µM; in the assay on IL-6, 0.001 to 5 µM. Moreover, the pIC50 was 5.30 to 8.00 in the assay with A2780, < 5.30 with T47D and 5.30 to 7.00 with STAT3.
On the same counts, the results for `CN(N=Cc1cnc2ccc(-c3cccnc3)cn12)S(=O)(=O)c1ccc(F)cc1` [Example 6, 4-Fluoro-N-methyl-N′-((6-(pyridine-3-yl)imidazo[1,2-a]pyridine-3-yl)methylene)benzenesulfonohydrazide] are 0.5 to 1 µM, 0.001 to 5 µM, 5.30 to 8.00, < 5.30 and 5.00 to 5.30.
`CN(N=Cc1cnc2ccc(-c3cccnc3)cn12)S(=O)(=O)c1cc(F)cc(F)c1` [Example 16, 3,5-Difluoro-N-methyl-N′-((6-(pyridine-3-yl)imidazo[1,2-a]pyridine-3-yl)methylene) benzenesulfonohydrazide]: the IC50 at PI3Kα kinase lay within 0.5 to 1 µM; in the assay on IL-6, 0.001 to 5 µM. In addition, the pIC50 with STAT3 was 5.00 to 5.30.
As for `Cc1ccc(F)cc1S(=O)(=O)N(C)N=Cc1cnc2ccc(-c3cccnc3)cn12` [Example 21, 5-Fluoro-N, 2-dimethyl-N′-((6-(pyridine-3-yl)imidazo[1,2-a]pyridine-3-yl)methylene) benzenesulfonohydrazide], the IC50 on PI3Kα kinase lay in the range of 0.01 to 0.5 µM; in the assay on IL-6 it was 0.001 to 5 µM. Moreover, the pIC50 was 5.30 to 8.00 in the assay on A2780 and 5.00 to 5.30 in the assay on STAT3.
Turning to `Cc1ccc([N+](=O)[O-])cc1S(=O)(=O)N(C)N=Cc1cnc2ccc(-c3cccnc3)cn12` [Example 25], the IC50 was 0.01 to 0.5 µM at PI3Kα kinase and 0.001 to 5 µM with IL-6. Further, the pIC50 in the assay on A2780 is 5.30 to 8.00; with T47D it was 5.30 to 8.00; in the assay with STAT3, 5.30 to 7.00.

Broadly, the IC50 is the concentration that inhibits the measured activity by half. Broadly, the pIC50 is the IC50 on a negative log10 scale, so that one unit is a factor of ten. A lower pIC50 goes with a high IC50.
